Assay results as given in ChEMBL document CHEMBL1201862, “PubChem BioAssay data set” (2004).
Blank lines part the entries; values can stand above or below the compound they belong to. Activity calls are given as the source filed them.

How the values were obtained:
[1] = target: T1, RNA-binding protein pos-1 (Caenorhabditis elegans, UniProt G5EF15); test: disruptors of C. elegans POS-1 RNA interaction – biochemical, fluorescence polarization, dose response (AID 1964);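 also: purified POS-1 fused to maltose binding protein made in E. coli; potency of compounds blocking POS-1 binding to fluorescent RNA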
T1 sequence (G5EF15 whole entry): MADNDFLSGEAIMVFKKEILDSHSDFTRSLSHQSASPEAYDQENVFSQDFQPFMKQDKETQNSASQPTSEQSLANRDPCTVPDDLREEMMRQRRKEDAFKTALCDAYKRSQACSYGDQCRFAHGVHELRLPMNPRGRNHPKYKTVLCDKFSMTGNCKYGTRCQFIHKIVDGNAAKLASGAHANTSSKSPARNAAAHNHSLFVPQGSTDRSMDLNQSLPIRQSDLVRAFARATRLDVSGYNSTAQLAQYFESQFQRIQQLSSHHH

[2] = target: T2, Sentrin-specific protease 1 (Homo sapiens, UniProt Q9P0U3); test: Dose response confirmation of small molecule inhibitors of the catalytic domain of the SUMO protease, SENP1 in a FRET assay.; type: functional; conditions: read-out: IC50_Mean
T2 sequence (Q9P0U3 whole entry): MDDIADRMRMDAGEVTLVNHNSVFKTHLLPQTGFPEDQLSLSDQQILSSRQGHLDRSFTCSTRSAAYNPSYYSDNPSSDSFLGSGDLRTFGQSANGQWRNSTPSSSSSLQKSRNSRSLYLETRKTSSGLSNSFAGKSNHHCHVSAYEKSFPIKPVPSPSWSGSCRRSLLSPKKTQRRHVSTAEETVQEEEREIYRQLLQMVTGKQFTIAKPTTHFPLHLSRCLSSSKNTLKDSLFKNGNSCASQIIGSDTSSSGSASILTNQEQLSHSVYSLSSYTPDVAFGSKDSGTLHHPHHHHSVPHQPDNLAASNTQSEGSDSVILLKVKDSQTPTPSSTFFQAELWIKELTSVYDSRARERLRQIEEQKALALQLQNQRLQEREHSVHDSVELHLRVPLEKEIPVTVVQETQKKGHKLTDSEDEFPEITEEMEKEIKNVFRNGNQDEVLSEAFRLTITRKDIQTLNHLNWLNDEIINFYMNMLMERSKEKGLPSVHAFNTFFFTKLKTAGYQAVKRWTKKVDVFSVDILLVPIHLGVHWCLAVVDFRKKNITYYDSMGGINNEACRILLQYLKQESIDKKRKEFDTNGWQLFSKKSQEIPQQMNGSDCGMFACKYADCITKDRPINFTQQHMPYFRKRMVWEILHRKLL

[3] = target: T3, Zinc finger protein mex-5 (Caenorhabditis elegans, UniProt Q9XUB2); test: potency of MEX-5 RNA-binding blockers – biochemical, C. elegans, fluorescence polarization, dose response (AID 1960)
T3 sequence (Q9XUB2 whole entry): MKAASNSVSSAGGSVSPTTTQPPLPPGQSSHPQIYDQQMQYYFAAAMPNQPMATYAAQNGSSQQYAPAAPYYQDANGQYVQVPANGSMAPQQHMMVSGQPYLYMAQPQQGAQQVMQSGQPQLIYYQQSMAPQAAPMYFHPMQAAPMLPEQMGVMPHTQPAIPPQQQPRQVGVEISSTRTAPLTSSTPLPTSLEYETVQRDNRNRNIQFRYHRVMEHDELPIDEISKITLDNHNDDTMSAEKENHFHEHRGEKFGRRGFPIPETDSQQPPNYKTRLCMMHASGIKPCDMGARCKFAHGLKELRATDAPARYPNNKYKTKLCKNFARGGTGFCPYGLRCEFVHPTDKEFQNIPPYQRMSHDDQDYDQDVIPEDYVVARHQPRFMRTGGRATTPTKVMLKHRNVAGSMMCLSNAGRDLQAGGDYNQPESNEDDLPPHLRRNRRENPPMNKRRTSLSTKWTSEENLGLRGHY

fMet-Leu-Phe receptor = target: T4, fMet-Leu-Phe receptor (Homo sapiens, UniProt P21462); test: formyl peptide receptor binders – dose response (AID 519); type: functional
T4 sequence (P21462 whole entry): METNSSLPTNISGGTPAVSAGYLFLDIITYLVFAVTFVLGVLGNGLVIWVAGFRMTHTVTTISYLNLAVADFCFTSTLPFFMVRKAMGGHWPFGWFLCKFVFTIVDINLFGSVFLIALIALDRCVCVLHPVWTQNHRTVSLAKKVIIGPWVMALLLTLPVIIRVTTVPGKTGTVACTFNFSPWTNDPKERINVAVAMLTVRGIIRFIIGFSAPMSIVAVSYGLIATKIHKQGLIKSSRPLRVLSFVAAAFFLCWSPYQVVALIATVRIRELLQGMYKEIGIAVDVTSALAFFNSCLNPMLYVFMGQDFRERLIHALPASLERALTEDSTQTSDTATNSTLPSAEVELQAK

[4] = target: T5, Oxysterols receptor LXR-beta (Homo sapiens, UniProt P55055); type: functional, cell-based;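 also: agonist activity at LXR measured by a cell-based luminescence readout across a dose range, run as a counterscreen for daf-12 agonists; HEK293 cells with Gal4-LXR fusion and GAL4-driven luciferase reporter; potency for activation of Gal4-LXR reporter so compounds are agonists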
T5 sequence (P55055 whole entry): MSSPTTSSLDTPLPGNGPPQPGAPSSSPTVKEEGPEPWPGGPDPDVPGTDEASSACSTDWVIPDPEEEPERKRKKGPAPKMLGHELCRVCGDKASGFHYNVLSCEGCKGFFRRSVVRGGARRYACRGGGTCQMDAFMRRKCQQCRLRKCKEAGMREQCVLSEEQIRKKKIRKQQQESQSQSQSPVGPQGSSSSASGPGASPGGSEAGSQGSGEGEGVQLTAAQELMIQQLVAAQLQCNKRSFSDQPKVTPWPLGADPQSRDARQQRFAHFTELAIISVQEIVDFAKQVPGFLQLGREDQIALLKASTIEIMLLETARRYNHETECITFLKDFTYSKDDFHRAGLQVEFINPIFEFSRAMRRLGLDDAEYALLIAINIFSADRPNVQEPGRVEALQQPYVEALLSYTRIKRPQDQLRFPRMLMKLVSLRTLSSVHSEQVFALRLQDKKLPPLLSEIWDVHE

Caspase-6 = target: T6, Caspase-6 (Homo sapiens, UniProt P55212); test: inhibition of CASP6 peptide cleavage – biochemical, VEID-R110 fluorescence, cherry-pick, dose response (AID 720632)
T6 sequence (P55212 whole entry): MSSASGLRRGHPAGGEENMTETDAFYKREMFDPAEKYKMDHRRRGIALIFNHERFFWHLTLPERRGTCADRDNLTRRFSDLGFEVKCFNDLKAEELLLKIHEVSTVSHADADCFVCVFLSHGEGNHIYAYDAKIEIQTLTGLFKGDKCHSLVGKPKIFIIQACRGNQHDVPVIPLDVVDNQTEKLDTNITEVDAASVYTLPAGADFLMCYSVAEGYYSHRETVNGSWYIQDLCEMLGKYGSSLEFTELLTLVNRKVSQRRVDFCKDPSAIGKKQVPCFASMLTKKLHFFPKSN

[5] = loss of viability in HepG2 cells – cell-based, CellTiter-Glo, cherry-picked, cytotoxicity control for Shn3 inhibitor project, dose response (AID 624134); type: functional
Protein Wnt-3a = Protein Wnt-3a (Mus musculus, UniProt P27467); test: antagonism of Wnt3a pathway luciferase reporter – Wnt-LIGHT cells, luminescence, selectivity assay for Gli-SUFU antagonist project, dose response (AID 651570); type: functional; conditions: read-out: IC50_Mean;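 also: Wnt-LIGHT reporter cells stimulated with conditioned medium from Wnt3a-producing cells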
Sequence of Protein Wnt-3a (P27467 whole entry): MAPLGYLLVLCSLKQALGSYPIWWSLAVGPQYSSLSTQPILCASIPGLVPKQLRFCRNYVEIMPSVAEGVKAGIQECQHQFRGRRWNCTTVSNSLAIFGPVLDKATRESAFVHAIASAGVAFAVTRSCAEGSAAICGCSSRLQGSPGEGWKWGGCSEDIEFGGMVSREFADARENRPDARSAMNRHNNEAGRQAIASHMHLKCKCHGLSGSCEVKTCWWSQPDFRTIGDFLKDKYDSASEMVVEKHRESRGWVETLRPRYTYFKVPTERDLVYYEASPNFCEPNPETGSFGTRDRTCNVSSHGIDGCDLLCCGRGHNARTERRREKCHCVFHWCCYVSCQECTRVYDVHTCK

[6] = target: T7, COUP transcription factor 2 (Homo sapiens, UniProt P24468); test: Luminescence-based cell-based high throughput dose response assay to identify inhibitors of COUP-TFII (NR2F2).; type: functional;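 also: HEK293 cells transiently cotransfected with COUP-TFII expression vector and reporter; luciferase reporter luminescence driven by COUP-TFII from the pX2-168 reporter plasmid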
T7 sequence (P24468 whole entry): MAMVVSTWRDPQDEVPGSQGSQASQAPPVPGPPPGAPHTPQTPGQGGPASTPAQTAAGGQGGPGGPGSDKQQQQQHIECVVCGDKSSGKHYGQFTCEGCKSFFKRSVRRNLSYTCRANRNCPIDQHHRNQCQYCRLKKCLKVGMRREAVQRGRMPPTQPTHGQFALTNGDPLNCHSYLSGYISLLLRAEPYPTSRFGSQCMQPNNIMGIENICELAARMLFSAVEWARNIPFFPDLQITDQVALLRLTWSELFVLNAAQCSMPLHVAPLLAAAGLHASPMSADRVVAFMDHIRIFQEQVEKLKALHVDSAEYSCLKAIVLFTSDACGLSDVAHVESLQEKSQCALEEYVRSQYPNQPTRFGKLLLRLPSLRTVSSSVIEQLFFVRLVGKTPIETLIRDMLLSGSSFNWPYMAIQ

[7] = reduction of Shn3 3'UTR-driven luciferase in osteoblasts – cell-based, Clone20 osteoblasts, firefly luciferase, cherry-picked, dose response (AID 624132); type: functional;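 also: firefly luciferase luminescence from reporter carrying the Shn3 3'UTR in osteoblasts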

Compound: COC(=O)c1[nH]c(C)c(C(=O)C2=C(O)C(=O)N(CCN3CCOCC3)C2c2cccnc2)c1C (configuration not stated)
Ki (fMet-Leu-Phe receptor): 20.8 µM (inactive)

Compound: O=C(C1=C(O)C(=O)N(c2ncccn2)C1c1ccc(Cl)c(Cl)c1)c1ccco1 (configuration not stated)
Ki (fMet-Leu-Phe receptor): > 66.7 µM (inactive)

Compound: c1ccc(CCSc2nccn2-c2ccccc2)cc1
EC50 [4]: > 67.6 µM (inactive)

Compound: CC(=O)c1cccc(NS(=O)(=O)c2ccc(-c3cnc(C4CC4)o3)cc2)c1
AC50 [5]: 47.3 µM (active)
IC50 (Protein Wnt-3a): 6.03 µM (active)
IC50 [6]: 12.3 µM (inactive)
AC50 [7]: 5 µM (active)

Next, values leading:

EC50 [1]: 37.9 µM (active)
IC50 [2]: 7.78 µM (active)
EC50 [3]: 40.9 µM (active)
Compound: O=C(c1ccccc1)[C@@H]1[C@@H]2C(=O)N(c3ccc(F)cc3)C(=O)[C@@H]2C2CCCN21 (some centres not stated)

AC50 (Caspase-6): 45.1 µM (active)
Compound: CC(C)(C)c1ccc(C(=O)Nn2c(CCC(=O)O)ccc2-c2cccs2)cc1

AC50 (Caspase-6): 49.2 µM (active)
Compound: O=C(Nc1nnc(Cc2c[nH]c3ccccc23)s1)c1ccc(Cl)cc1Cl
